Experimental data: patent US20050096327A1, “Novel norepinephrine reuptake inhibitors for the treatment of central nervous system disorders” (priority 2003, published 2005)

Legend:
[1] = biological target: T1, human norepinephrine transporter (Homo sapiens, UniProt P23975); assay: hNET receptor binding ([125I]-RTI-55, membranes of transfected HEK-293 cells); conditions: 50 pM [125I]-RTI-55, 90 min room temperature; IC50 converted by Cheng-Prusoff
T1 construct: host or cells: HEK-293
Description: (§1) Cell pastes of HEK-293 cells transfected with the human norepinephrine transporter were supplied by the Pfizer Ann Arbor Protein Expression and Production group. Pellets were resuspended in 400 to 700 ml of Krebs-HEPES assay buffer (25 mM HEPES, 122 mM NaCl, 3 mM KCl, 1.2 mM MgSO4, 1.3 mM CaCl2, and 11 mM glucose, pH 7.4) with a Polytron homogenizer at setting 7 for 30 sec. Aliquots of membranes (5 mg/ml protein) were stored in liquid nitrogen until used.
The binding assay was set up in Beckman deep-well polypropylene plates with a total volume of 250 μl containing: drug (10^−5M to 10^−12M), cell membranes, and 50 pM [^125I]-RTI-55 (Perkin Elmer, NEX-272; specific activity 2200 Ci/mmol). The reaction was incubated by gentle agitation for 90 min at room temperature and was terminated by filtration through Whatman GF/C filter plates using a Brandel 96-well plate harvester. Scintillation fluid (100 μl) was added to each well, and bound [^125I]-RTI-55 was determined using a Wallac Trilux Beta Plate Counter. Test compounds were run in duplicate, and specific binding was defined as the difference between binding in the presence and absence of 10 μM desipramine.
Excel and GraphPad Prism software were used for data calculation and analysis. IC50 values were converted to Ki values using the Cheng-Prusoff equation. The Ki values for the hNET are reported below in Table 1.

[2] = biological target: T2, human serotonin transporter (Homo sapiens, UniProt P31645); assay: hSERT receptor binding ([125I]-RTI-55, membranes of transfected HEK-293 cells); conditions: 50 pM [125I]-RTI-55, 90 min room temperature; IC50 converted by Cheng-Prusoff
T2 construct: host or cells: HEK-293
Description: as §1, with “serotonin” for “norepinephrine”, “Group.” for “group.”, “mL” for “ml”, “Setting” for “setting”, “seconds.” for “sec.”, “(˜2.5 mg/mL” for “(5 mg/ml”
Assays were set up in FlashPlates pre-coated with 0.1% PEI in a total volume of 250 μL containing: drug (10^−5M to 10^−12M), cell membranes, and 50 pM [^125I]-RTI-55 (Perkin Elmer, NEX-272; specific activity 2200 Ci/mmol). The reaction was incubated and gently agitated for 90 minutes at room temperature, and terminated by removal of assay volume. Plates were covered, and bound [^125I]-RTI-55 was determined using a Wallac Trilux Beta Plate Counter. Test compounds were run in duplicate, and specific binding was defined as the difference between binding in the presence and absence of 10 μM citalopram.
Excel and GraphPad Prism software were used for data calculation and analysis. IC50 values were converted to Ki values using the Cheng-Prusoff equation. The Ki values for the hSERT are reported below in Table 1.

T1 sequence (P23975 whole entry): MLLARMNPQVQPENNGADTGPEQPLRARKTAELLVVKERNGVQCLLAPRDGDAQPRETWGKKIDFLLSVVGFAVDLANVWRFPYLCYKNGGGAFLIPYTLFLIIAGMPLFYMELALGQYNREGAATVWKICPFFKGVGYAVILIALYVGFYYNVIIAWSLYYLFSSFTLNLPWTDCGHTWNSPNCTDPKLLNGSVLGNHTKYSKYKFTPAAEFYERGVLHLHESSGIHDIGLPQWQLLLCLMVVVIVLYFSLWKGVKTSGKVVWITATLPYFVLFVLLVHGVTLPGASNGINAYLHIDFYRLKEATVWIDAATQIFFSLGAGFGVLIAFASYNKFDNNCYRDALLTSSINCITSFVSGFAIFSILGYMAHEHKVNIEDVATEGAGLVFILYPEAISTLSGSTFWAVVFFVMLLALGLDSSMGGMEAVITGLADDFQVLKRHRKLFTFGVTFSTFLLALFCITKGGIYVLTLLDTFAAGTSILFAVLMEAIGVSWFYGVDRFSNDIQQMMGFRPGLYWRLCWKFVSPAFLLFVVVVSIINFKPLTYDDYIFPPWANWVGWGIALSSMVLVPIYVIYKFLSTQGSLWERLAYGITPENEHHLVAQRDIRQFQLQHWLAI
T2 sequence (P31645 whole entry): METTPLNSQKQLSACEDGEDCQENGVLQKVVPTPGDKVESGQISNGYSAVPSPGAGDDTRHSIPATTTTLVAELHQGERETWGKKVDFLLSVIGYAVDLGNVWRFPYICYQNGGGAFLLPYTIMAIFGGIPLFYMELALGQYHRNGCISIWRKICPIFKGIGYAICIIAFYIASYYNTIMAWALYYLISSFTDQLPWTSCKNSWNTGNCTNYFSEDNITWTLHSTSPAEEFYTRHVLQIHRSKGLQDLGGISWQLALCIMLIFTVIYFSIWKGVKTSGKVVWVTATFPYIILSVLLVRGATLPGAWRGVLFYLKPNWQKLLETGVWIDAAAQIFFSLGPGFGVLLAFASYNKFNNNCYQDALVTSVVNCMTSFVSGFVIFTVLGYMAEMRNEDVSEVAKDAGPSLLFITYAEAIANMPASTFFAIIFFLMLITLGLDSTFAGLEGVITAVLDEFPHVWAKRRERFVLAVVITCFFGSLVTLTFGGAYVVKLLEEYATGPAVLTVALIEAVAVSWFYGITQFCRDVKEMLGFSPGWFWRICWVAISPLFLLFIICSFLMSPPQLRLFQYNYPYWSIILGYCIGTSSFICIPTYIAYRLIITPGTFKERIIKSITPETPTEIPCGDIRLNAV

For `Cc1cc(F)ccc1-c1nc(N2CCNCC2)nc2cc(Cl)ccc12` [Example 118, 7-Chloro-4-(4-fluoro-2-methyl-phenyl)-2-piperazin-1-yl-quinazoline], the Ki [1] was 67.2 nM and the Ki [2] was 49 nM.

`Fc1ccc2c(-c3ccc(F)c(F)c3)nc(N3CCNCC3)nc2c1` [Example 119, 4-(3,4-Difluoro-phenyl)-7-fluoro-2-piperazin-1-yl-quinazoline] gave a Ki [1] of 7.3 nM and a Ki [2] of 22.7 nM.

In the case of `Fc1ccc2c(-c3ccc(Cl)cc3Cl)nc(N3CCNCC3)nc2c1` [Example 120, 4-(2,4-Dichloro-phenyl)-7-fluoro-2-piperazin-1-yl-quinazoline], the Ki [1] is reported as 95 nM and the Ki [2] is reported as 34.1 nM.

`Fc1ccc2nc(N3CCNCC3)nc(-c3cccc(F)c3F)c2c1` [Example 121, 4-(2,3-Difluoro-phenyl)-6-fluoro-2-piperazin-1-yl-quinazoline] gave a Ki [1] of 15.7 nM and a Ki [2] of 32.5 nM.

`Fc1ccc(-c2nc(N3CCNCC3)nc3ccc(F)cc23)c(F)c1` [Example 122, 4-(2,4-Difluoro-phenyl)-6-fluoro-2-piperazin-1-yl-quinazoline] was tested, and the Ki [1] was 12.1 nM and the Ki [2] was 15.5 nM.

In the case of `Fc1cc2nc(N3CCNCC3)nc(-c3cccc(F)c3F)c2cc1F` [Example 123, 4-(2,3-Difluoro-phenyl)-6,7-difluoro-2-piperazin-1-yl-quinazoline], the Ki [1] is reported as 28.5 nM and the Ki [2] is reported as 47.2 nM.

Work on `C[C@H]1CNCCN1c1nc(-c2cccc(F)c2F)c2ccc(F)cc2n1` [Example 124, S-4-(2,3-Difluoro-phenyl)-7-fluoro-2-(2-methyl-piperazin-1-yl)-quinazoline] yielded a Ki [1] of 21.6 nM and a Ki [2] of 28.1 nM.

Work on `Clc1ccc(Cl)c(-c2nc(N3CCNCC3)nc3ccccc23)c1` [Example 125, 4-(2,5-dichloro-phenyl)-2-piperazin-1-yl-quinazoline] yielded a Ki [1] of 32.2 nM and a Ki [2] of 636 nM.

Molecule `Fc1cc(F)cc(-c2nc(N3CCNCC3)nc3ccccc23)c1` [Example 126, 4-(3,5-difluoro-phenyl)-2-piperazin-1-yl-quinazoline] has a Ki [1] of 3.7 nM and a Ki [2] of 107 nM.

`C[C@H]1CNCCN1c1nc(-c2c(F)cccc2F)c2ccccc2n1` [Example 127, S-4-(2,6-Difluoro-phenyl)-2-(2-methyl-piperazin-1-yl)-quinazoline] showed a Ki [1] of 33.9 nM and a Ki [2] of 58.6 nM.

`Clc1ccc2nc(N3CCNCC3)nc(-c3ccccc3)c2c1` [Example 128, 6-Chloro-4-phenyl-2-piperazin-1-yl-quinazoline] was tested, and the Ki [1] was 35.5 nM and the Ki [2] was 11.4 nM.

`Fc1ccccc1-c1nc(N2CCNCC2)nc2ccc(Cl)cc12` [Example 129, 4-(2-Fluoro-phenyl)-6-chloro-2-piperazin-1-yl-quinazoline] was tested, and the Ki [1] was 25.6 nM and the Ki [2] was 8.4 nM.

For `C[C@@H]1CNCCN1c1nc(-c2cccc(F)c2F)c2ccc(F)cc2n1` [Example 130, R-4-(2,3-Difluoro-phenyl)-7-fluoro-2-(2-methyl-piperazin-1-yl)-quinazoline], the Ki [1] was 24.7 nM and the Ki [2] was 44.3 nM.

`Fc1cccc(F)c1-c1nc(N2CCNCC2)nc2ccc(Cl)cc12` [Example 131, 4-(2,6-Difluoro-phenyl)-6-chloro-2-piperazin-1-yl-quinazoline] gave a Ki [1] of 30 nM and a Ki [2] of 4.8 nM.

For `Fc1cccc2c(-c3ccccc3)nc(N3CCNCC3)nc12` [Example 133, 8-Fluoro-4-phenyl-2-piperazin-1-yl-quinazoline], the Ki [1] was 22 nM and the Ki [2] was 1590 nM.

`Fc1ccc(-c2nc(N3CCNCC3)nc3cc(F)ccc23)c(Cl)c1` [Example 134, 4-(2-Chloro-4-fluoro-phenyl)-7-fluoro-2-piperazin-1-yl-quinazoline] showed a Ki [1] of 30.3 nM and a Ki [2] of 62.6 nM.

In the case of `Fc1ccc2c(-c3nccs3)nc(N3CCNCC3)nc2c1` [Example 135, 7-Fluoro-2-piperazin-1-yl-4-thiazol-2-yl-quinazoline], the Ki [1] is reported as 56.8 nM and the Ki [2] is reported as 313 nM.

For `COc1ccccc1-c1nc(N2CCNCC2)nc2cc(F)ccc12` [Example 136, 4-(2-Methoxy-phenyl)-7-fluoro-2-piperazin-1-yl-quinazoline], the Ki [1] was 43.1 nM and the Ki [2] was 76.5 nM.

Molecule `Cc1ccc(F)cc1-c1nc(N2CCNCC2)nc2cc(F)ccc12` [Example 137, 7-Fluoro-4-(5-fluoro-2-methyl-phenyl)-2-piperazin-1-yl-quinazoline] has a Ki [1] of 16.6 nM and a Ki [2] of 190 nM.

For `Fc1ccc(-c2nc(N3CCNCC3)nc3cc(F)ccc23)c(F)c1` [Example 140, 4-(2,4-Difluoro-phenyl)-7-fluoro-2-piperazin-1-yl-quinazoline], the Ki [1] was 28.3 nM and the Ki [2] was 16.7 nM.

Molecule `Fc1ccc(-c2nc(NC3CNC3)nc3cc(F)ccc23)c(F)c1` [Example 141, Azetidin-3-yl-[4-(2,4-difluoro-phenyl)-7-fluoro-quinazolin-2-yl]-amine] has a Ki [1] of 102 nM and a Ki [2] of 1920 nM.

For `Fc1ccc(-c2nc(N3CC[C@@H]4CNC[C@@H]43)nc3cc(F)ccc23)c(F)c1` [Example 142, R,R-4-(2,4-Difluoro-phenyl)-7-fluoro-2-(hexahydro-pyrrolo[3,4-b]pyrrol-1-yl)-quinazoline], the Ki [1] was 90.6 nM and the Ki [2] was 91.4 nM.

`Fc1ccc(-c2nc(N[C@@H]3CCNC3)nc3cc(F)ccc23)c(F)c1` [Example 143, R-[4-(2,4-Difluoro-phenyl)-7-fluoro-quinazolin-2-yl]-pyrrolidin-3-yl-amine] gave a Ki [1] of 17.9 nM and a Ki [2] of 9.3 nM.

With `Cc1cccc2nc(N3CCNCC3)nc(-c3ccccc3)c12` [Example 145, 5-Methyl-4-phenyl-2-piperazin-1-yl-quinazoline] the Ki [1] was 16.6 nM and the Ki [2] was 121 nM.

`Fc1cc2nc(N3CCNCC3)nc(-c3c(F)cccc3F)c2cc1F` [Example 146, 4-(2,6-Difluoro-phenyl)-6,7-difluoro-2-piperazin-1-yl-quinazoline] was tested, and the Ki [1] was 31.5 nM and the Ki [2] was 19 nM.

With `Fc1ccc(-c2nc(N3CCNCC3)nc3cc(F)c(F)cc23)c(F)c1` [Example 147, 4-(2,4-Difluoro-phenyl)-6,7-difluoro-2-piperazin-1-yl-quinazoline] the Ki [1] was 28 nM and the Ki [2] was 25.6 nM.

`Fc1cccc(F)c1-c1nc(NC2CCNCC2)nc2ccccc12` [Example 148, [4-(2,6-Difluoro-phenyl)-quinazolin-2-yl]-piperidin-4-yl-amine] showed a Ki [1] of 267 nM and a Ki [2] of 4060 nM.

`CNC1CCN(c2nc(-c3c(F)cccc3F)c3ccccc3n2)C1` (stereo not drawn) [Example 149, {1-[4-(2,6-Difluoro-phenyl)-quinazolin-2-yl)-pyrrolidin-3-yl}-methyl-amine] was tested, and the Ki [1] was 135 nM and the Ki [2] was 1620 nM.

In the case of `CNC1CCN(c2nc(-c3ccc(F)cc3F)c3ccccc3n2)C1` (stereo not drawn) [Example 150, {1-[4-(2,4-Difluoro-phenyl)-quinazolin-2-yl]-pyrrolidin-3-yl}-methyl-amine], the Ki [1] is reported as 41.5 nM and the Ki [2] is reported as 2700 nM.

In the case of `CNC1CCN(c2nc(-c3c(F)cccc3F)c3ccccc3n2)CC1` [Example 151, {1-[4-(2,6-Difluoro-phenyl)-quinazolin-2-yl]-piperidin-4-yl}-methyl-amine], the Ki [1] is reported as 384 nM and the Ki [2] is reported as 5540 nM.

Work on `NCCCNc1nc(-c2ccc(F)cc2F)c2ccccc2n1` [Example 152, N1-[4-(2,4-Difluoro-phenyl)-quinazolin-2-yl]-propane-1,3-diamine] yielded a Ki [1] of 25.8 nM and a Ki [2] greater than 10000 nM.

With `CNC1CCN(c2nc(-c3ccc(F)cc3F)c3ccccc3n2)CC1` [Example 153, {1-[4-(2,4-Difluoro-phenyl)-quinazolin-2-yl]-piperidin-4-yl}-methyl-amine] the Ki [1] was 150 nM and the Ki [2] was greater than 10000 nM.

`Fc1ccc(-c2nc(NC3CCNCC3)nc3ccccc23)c(F)c1` [Example 154, [4-(2,4-Difluoro-phenyl)-quinazolin-2-yl]-piperidin-4-yl-amine] gave a Ki [1] of 58.1 nM and a Ki [2] of 5370 nM.

With `Fc1ccc(-c2nc(NCC3CCNC3)nc3ccccc23)c(F)c1` (stereo not drawn) [Example 155, [4-(2,4-Difluoro-phenyl)-quinazolin-2-yl]-pyrrolidin-3-ylmethyl-amine] the Ki [1] was 425 nM and the Ki [2] was greater than 10000 nM.

With `Fc1cccc(-c2nc(NC3CCNCC3)nc3ccccc23)c1F` [Example 156, [4-(2,3-Difluoro-phenyl)-quinazolin-2-yl]-piperidin-4-yl-amine] the Ki [1] was 221 nM and the Ki [2] was 6980 nM.

Molecule `CNC1CCN(c2nc(-c3cccc(F)c3F)c3ccccc3n2)C1` (stereo not drawn) [Example 157, {1-[4-(2,3-Difluoro-phenyl)-quinazolin-2-yl]-pyrrolidin-3-yl}-methyl-amine] has a Ki [1] of 148 nM and a Ki [2] of 4250 nM.
